Columns and labels:
[1] = tested on: DIAMOND™ mouse model; assay: In-vivo activity, histopathological diagnosis (H&E and Oil-Red-O staining of liver tissue); settings: DIAMOND mice, 16 mg/kg oral once daily for 8 weeks, FIG. 18
Method: (§1) The DIAMOND™ mouse model, an animal model prepared using a Western diet and sugar water, was used. The DIAMOND™ mice were induced with WDSW for 14 weeks, and 12 mice were used for the control group and 12 mice for the BW-3290 treatment group, and BW-3290 was orally administered at 16 mg/kg once daily for 8 weeks. An autopsy was performed at week 22, and blood collection and tissue storage were performed for the individuals in each group.
Hematoxylin & Eosin (H&E) staining and Oil-Red-O (ORO) staining were performed using liver tissue obtained after autopsy

[2] = tested on: 3T3-L1 cells; assay: Inhibition of fat globule formation in adipocytes by Oil-Red-O staining; format: cell-based, mouse; settings: 3T3-L1 adipocytes, 0.5, 2.5, 10 and 20 μM
Method: In order to confirm the effect of the compound on reducing fat accumulation on adipocytes, 3TL-L1 mouse fat progenitor cells (American Type Culture Collection) were cultured in an incubator set at 37° C. with 95% humidity and 5% CO2.
Additionally, after sufficiently proliferating 3T3-L1 mouse adipocytes using a proliferation medium (Dulbecco's modified Eagle's medium (DMEM) supplemented with 10% bovine serum (BS), 100 U/mL of penicillin, and 100 μg/mL of streptomycin), the cells were treated with a differentiation medium (DMEM containing 10% FBS, 0.5 mM 3-isobutyl-1-methylxanthine, 1 […], and 5 μg/mL insulin) for 2 days.
Thereafter, the cells were treated with an induction medium (DMEM containing 10% FBS and 5 μg/mL insulin) for 2 days, the maintenance medium (DMEM containing 10% FBS) was replaced daily to maintain the differentiated adipocytes until the end of the experiment.
According to an embodiment of the present invention, in order to confirm the ability of the compound of Formula 2 to inhibit fat globule formation, the 3T3-L1 cells (which are fat progenitor cells) were induced to be differentiated into adipocytes, and then stained through Oil-Red-O staining. […]

[3] = tested on: DIAMOND™ mouse model; assay: Efficacy in improving liver fibrosis (Sirius Red and Trichrome staining of liver tissue); format: in vivo; settings: DIAMOND mice liver tissue, 16 mg/kg oral once daily for 8 weeks, compared to control group (VC)
Method: as §1
Staining was performed by Sirius Red staining and Trichrome (Masson's trichrome) staining, which are the staining methods that can confirm fibrosis, was stained using the liver tissue obtained after autopsy.

CC(C)C(Nc1ncnc2nc[nH]c12)c1nc2cccc(Cl)c2c(=O)n1-c1ccccc1 (stereo not drawn) [BW-3290, 2-(1-((7H-purin-6-yl)amino)-2-methylpropyl)-5-chloro-3-phenylquinazolin-4(3H)-one]
fat cells stained in red in liver tissue, ORO staining ([1]; compared to the control group (VC)): reduced | fat globules in liver tissue, H&E staining ([1]; compared to the control group): reduced | fat globule staining (Oil-Red-O) compared to differentiation ([2]; concentration-dependent, FIG. 5): lower level of fat globule staining compared to differentiation | amount of stained fat globules ([2]; FIG. 6): appeared less in a drug concentration-dependent manner | fiberized portions stained in blue by Trichrome staining [3]: reduced | collagen and amyloid tissues stained in red by Sirius Red staining ([3]; FIGS. 19 and 22): decreased

Source: patent US20230097253A1, “NOVEL QUINAZOLINE COMPOUND AS THERAPEUTIC AGENT FOR METABOLIC DISORDERS” (BIOWAY., INC, priority 2020, published 2023)
